Reference: BigSolDB 2.1

O=C(O)CC(S)C(=O)O (stereo not drawn)
solubility (mole fraction)
Details | in acetone | in acetonitrile | in ethanol | in ethyl acetate | in isopropanol | in methanol | in n-butanol
278.15 K | 0.133 | 0.0114 | 0.138 | 0.0454 | 0.1 | 0.117 | 0.0909
283.15 K | 0.142 | 0.0159 | 0.154 | 0.0482 | 0.112 | 0.136 | 0.105
288.15 K | 0.149 | 0.0212 | 0.169 | 0.0515 | 0.126 | 0.157 | 0.118
293.15 K | 0.159 | 0.0296 | 0.186 | 0.0547 | 0.141 | 0.178 | 0.134
298.15 K | 0.168 | 0.0392 | 0.205 | 0.0595 | 0.156 | 0.203 | 0.153
303.15 K | 0.178 | 0.0513 | 0.224 | 0.0634 | 0.174 | 0.228 | 0.172
308.15 K | 0.19 | 0.0656 | 0.244 | 0.068 | 0.192 | 0.256 | 0.192
313.15 K | 0.202 | 0.0853 | 0.265 | 0.0732 | 0.212 | 0.285 | 0.213
318.15 K | 0.213 | 0.108 | 0.287 | 0.0787 | 0.233 | 0.314 | 0.236
323.15 K | 0.226 | 0.135 | 0.31 | 0.0849 | 0.256 | 0.345 | 0.261
328.15 K | 0.24 | 0.168 | 0.335 | 0.0915 | 0.28 | 0.379 | 0.286
333.15 K | – | 0.206 | 0.361 | 0.0991 | 0.305 | 0.412 | 0.313
